Columns and labels:
[1] = system: KTC-ICR mice; test: acetic acid induced writhing test (analgesic effect); assay type: in vivo; settings: for ED50: Mus musculus, ip, read-out: ED50 acetic acid
Protocol: (§1) Physiological activities of the compounds obtained in Examples 1 to 11 were measured by employing acetic acid or phenyl-1,4-benzoquinone(PBQ) induced writhing test.
(§2) The KTC-ICR mice provided by Experimental Animal Laboratory of Korea Research Institute of Chemical Technology were used as test animals. […] They were tested in a group consisting of 8 mice for each dosage of a test compound after having been adjusted to the testing environment for a week. Food and water were given freely; and illumination was maintained on a 12-hour cycle.
(§3) Test solutions were prepared by dissolving one of the final products obtained in Examples 1 to 11 in distilled water containing 1% of Tween and 5% ethanol in a pre-determined concentration. The test solutions were used after serial dilution depending on each dosage.
(§4) The test solutions were intraperitoneally administered in a dose of 0.1 ml per 10 g of a body weight. 0.1 ml of 1% acetic acid solution or 0.1 ml of 0.02% PBQ solution was administered after 60 minutes in case of oral administration or after 30 minutes in case of subcutaneous injection.
(§5) Then, the number of writhings generated during a period of 10 minutes after 3 minutes from the administration of acetic acid was measured. In case of the administration of PBQ, the number of writhings generated during a period of 5 minutes after 5 minutes from the administration was measured.
(§6) For a comparison purpose, initially, distilled water containing 1% of Tween and 5% ethanol alone was administered to the control group. Then, the control groups were subjected the same procedure as the test groups.
(§7) The number of writhings suffered by the test group was compared with that of the control group; and the analgesic effect was measured in terms of the percentage of inhibition of writhing(I. W.). [formula] wherein: A is the number of writhings suffered by the control group; and
(§8) B is the number of writhings suffered by the test group.
(§9) I.W. values for each dosage were calculated by employing regression analysis. The amount of a test compound which is required in reducing the frequency of writhings to the 50% level of that generated by the control group, i.e., B=0.5A or I.W.=50%, is designated as ED50 (mg/kg of a body weight). Therefore, a lower value of ED50 represents a higher analgesic effect of the tested compound.

[2] = system: KTC-ICR mice; test: phenyl-1,4-benzoquinone (PBQ) induced writhing test (analgesic effect); assay type: in vivo; settings: Mus musculus, ip, read-out: ED50 PBQ
Protocol: as §1, §2, §3, §4, §5, §6, §7, §8, §9

[3] = system: test animals; test: toxicity test: behavioral changes in the test animals observed by the naked eye; assay type: in vivo, KTC-ICR mice; parameters: key to Convulsion / Salivation / Urination: score; normal value 0, higher number = greater side effects; settings: score; for Convulsion / Salivation / Urination: normal value 0; for Dyspnoea / Ptosis / Sedation / Vasodilation: normal value 4
Protocol: In order to monitor a harmful side-effect or toxicity of the present compounds, various behavioral changes in the test animals were observed. After the test and the control solutions were administered to the animals, symptoms such as sedation, ptosis, dyspnoea, vasodilation, convulsion, salivation and urination were observed by the naked eye and the level of such changes was represented by a numbering system: that is, the normal value of the last three behaviors(i.e., urination, convulsion and salivation) is 0; and that of the others(i.e., sedation, ptosis, dyspnoea and vasodilation) is 4. The higher the number is, the greater the side effects are.

[4] = acetic acid induced writhing, 50% reduction of writhings vs control group, mice 20 to 25 g
[5] = PBQ induced writhing, 50% reduction of writhings vs control group, mice 14 to 18 g

COc1cc(CNC(=O)CCCC/C=C/C(C)C)ccc1O [Capsaicin, Nvanillyl-trans-8-methyl-6-nonenamide, reference compound]
1.34 mg/kg: ED50 [1]

COc1cc(CC(=O)NCCCc2ccc(C)c(C)c2)ccc1OCCNC=O [Example 6]
0.26 mg/kg: ED50 [1, 4]

COc1cc(CC(=O)NCCCc2ccc(C)c(C)c2)ccc1OCCNCCN [Example 4, N-{3-(3,4-dimethylphenyl)propyl}-4-[2-{N-(2-aminoethyl)}aminoethoxy]-3-methoxyphenylacetamide]
1.78 mg/kg: ED50 [1, 4]

CNCCOc1ccc(CC(=O)NCCCc2ccc(C)c(C)c2)cc1OC [Example 8, N-{3-(3,4-dimethylphenyl)propyl}-4-(2-methylaminoethoxy)-3-methoxyphenylacetamide]
0.68 mg/kg: ED50 [2, 5]

CCCCCCCC/C=C\CCCCCCCC(=O)NCc1ccc(O)c(OC)c1 [NE-19550, Nvanillyloleamide, reference compound]
15.7 mg/kg: ED50 [1]

COc1cc(CC(=O)NCCCc2ccc(C)c(C)c2)ccc1OCCN(CCO)CCO [Example 3, N-{3-(3,4-dimethylphenyl)propyl}-4-[2-{N,N-di(2-hydroxyethyl)}aminoethoxy]-3-methoxyphenylacetamide]
6: Dyspnoea ([3]; Amount 5 mgg) | Sedation ([3]; Amount 5 mgg)
7: Ptosis ([3]; Amount 5 mgg)
4: Dyspnoea ([3]; Amount 1.25 mgg) | Ptosis ([3]; Amount 1.25 mgg) | Sedation ([3]; Amount 1.25 mgg) | Vasodilation ([3]; Amount 1.25 mgg) | Dyspnoea ([3]; Amount 2.5 mgg) | Vasodilation ([3]; Amount 2.5 mgg)
5: Ptosis ([3]; Amount 2.5 mgg) | Sedation ([3]; Amount 2.5 mgg) | Vasodilation ([3]; Amount 5 mgg)
0: Convulsion ([3]; Amount 1.25 mgg) | Salivation ([3]; Amount 1.25 mgg) | Urination ([3]; Amount 1.25 mgg) | Convulsion ([3]; Amount 2.5 mgg) | Salivation ([3]; Amount 2.5 mgg) | Urination ([3]; Amount 2.5 mgg) | Convulsion ([3]; Amount 5 mgg) | Salivation ([3]; Amount 5 mgg) | Urination ([3]; Amount 5 mgg)
1.41 mg/kg: ED50 [1, 4]

COc1cc(CC(=O)NCCCc2ccc(C)c(C)c2)ccc1OCCN1CCCC1 [Example 9, N-{3-(3,4-dimethylphenyl)propyl}-4-{2-(1-pyrrolidinyl)ethoxy}-3-methoxyphenylacetamide]
> 5 mg/kg: ED50 [1, 4]

COc1cc(CC(=O)NCCCc2ccc(C)c(C)c2)ccc1OCCNC(=O)OCc1ccccc1 [Example 7, N-{3-(3,4-dimethylphenyl)propyl}-4-{2-(N-benzyloxycarbonyl)aminoethoxy}-3-methoxyphenylacetamide]
1.51 mg/kg: ED50 [1, 4]

COc1cc(CC(=O)NCCCc2ccc(C)c(C)c2)ccc1OCCN [Control, reference compound]
4: Dyspnoea ([3]; Amount 0.2 mgg) | Ptosis ([3]; Amount 0.2 mgg) | Sedation ([3]; Amount 0.2 mgg) | Vasodilation ([3]; Amount 0.2 mgg)
0: Salivation ([3]; Amount 0.2 mgg) | Urination ([3]; Amount 0.2 mgg) | Salivation ([3]; Amount 0.25 mgg) | Urination ([3]; Amount 0.25 mgg) | Salivation ([3]; Amount 0.5 mgg) | Urination ([3]; Amount 0.5 mgg) | Salivation ([3]; Amount 1 mgg) | Urination ([3]; Amount 1 mgg)
1: Convulsion ([3]; Amount 0.2 mgg) | Convulsion ([3]; Amount 0.25 mgg) | Convulsion ([3]; Amount 0.5 mgg) | Convulsion ([3]; Amount 1 mgg)
6: Ptosis ([3]; Amount 0.25 mgg) | Sedation ([3]; Amount 0.25 mgg) | Dyspnoea ([3]; Amount 0.5 mgg) | Dyspnoea ([3]; Amount 1 mgg) | Vasodilation ([3]; Amount 1 mgg)
5: Dyspnoea ([3]; Amount 0.25 mgg) | Vasodilation ([3]; Amount 0.25 mgg) | Vasodilation ([3]; Amount 0.5 mgg)
7: Ptosis ([3]; Amount 0.5 mgg) | Sedation ([3]; Amount 0.5 mgg) | Ptosis ([3]; Amount 1 mgg) | Sedation ([3]; Amount 1 mgg)

COc1ccc2cc([C@H](C)C(=O)O)ccc2c1 [Naproxen]
17.1 mg/kg: ED50 [2, 5]

CC(=O)Oc1ccccc1C(=O)O [Aspirin]
71.4 mg/kg: ED50 [2]

CC(C)Cc1ccc(C(C)C(=O)O)cc1 (stereo not drawn) [Ibuprofen]
11 mg/kg: ED50 [2, 5]

COc1cc(CC(=O)NCCCc2ccc(C)c(C)c2)ccc1OCCO [Example 1, N-{3-(3,4-dimethylphenyl)propyl}-4-(2-hydroxyethoxy)-3-methoxyphenylacetamide]
2.01 mg/kg: ED50 [1, 4]
0: Convulsion ([3]; Amount 1 mgg) | Salivation ([3]; Amount 1 mgg) | Urination ([3]; Amount 1 mgg) | Convulsion ([3]; Amount 2 mgg) | Salivation ([3]; Amount 2 mgg) | Urination ([3]; Amount 2 mgg) | Convulsion ([3]; Amount 4 mgg) | Salivation ([3]; Amount 4 mgg) | Urination ([3]; Amount 4 mgg)
5: Dyspnoea ([3]; Amount 4 mgg) | Ptosis ([3]; Amount 4 mgg) | Vasodilation ([3]; Amount 4 mgg)
6: Sedation ([3]; Amount 4 mgg)
4: Dyspnoea ([3]; Amount 1 mgg) | Ptosis ([3]; Amount 1 mgg) | Sedation ([3]; Amount 1 mgg) | Vasodilation ([3]; Amount 1 mgg) | Dyspnoea ([3]; Amount 2 mgg) | Ptosis ([3]; Amount 2 mgg) | Sedation ([3]; Amount 2 mgg) | Vasodilation ([3]; Amount 2 mgg)

COc1cc(CC(=O)NCCCc2ccc(C)c(C)c2)ccc1OCCN1CCNCC1 [Example 5, N-{3-(3,4-dimethylphenyl)propyl}-4-(2-piperazinylethoxy)-3-methoxyphenylacetamide]
0: Convulsion ([3]; Amount 1 mgg) | Salivation ([3]; Amount 1 mgg) | Urination ([3]; Amount 1 mgg) | Convulsion ([3]; Amount 2 mgg) | Salivation ([3]; Amount 2 mgg) | Urination ([3]; Amount 2 mgg) | Convulsion ([3]; Amount 4 mgg) | Salivation ([3]; Amount 4 mgg) | Urination ([3]; Amount 4 mgg)
> 20 mg/kg: ED50 [1, 4]
6: Ptosis ([3]; Amount 4 mgg) | Sedation ([3]; Amount 4 mgg)
4: Dyspnoea ([3]; Amount 1 mgg) | Ptosis ([3]; Amount 1 mgg) | Sedation ([3]; Amount 1 mgg) | Vasodilation ([3]; Amount 1 mgg) | Dyspnoea ([3]; Amount 2 mgg) | Ptosis ([3]; Amount 2 mgg) | Sedation ([3]; Amount 2 mgg) | Vasodilation ([3]; Amount 2 mgg) | Dyspnoea ([3]; Amount 4 mgg) | Vasodilation ([3]; Amount 4 mgg)

COc1cc(CC(=O)NCCCc2ccc(C)c(C)c2)ccc1OCCNCCO [Example 2, N-{3-(3,4-dimethylphenyl)propyl}-4-[2-{N-(2-hydroxyethyl)}aminoethoxy]-3-methoxy phenylacetamide]
5: Ptosis ([3]; Amount 0.5 mgg) | Sedation ([3]; Amount 0.5 mgg) | Dyspnoea ([3]; Amount 1 mgg) | Vasodilation ([3]; Amount 1 mgg)
0.3 mg/kg: ED50 [1, 4]
0: Convulsion ([3]; Amount 0.25 mgg) | Salivation ([3]; Amount 0.25 mgg) | Urination ([3]; Amount 0.25 mgg) | Convulsion ([3]; Amount 0.5 mgg) | Salivation ([3]; Amount 0.5 mgg) | Urination ([3]; Amount 0.5 mgg) | Convulsion ([3]; Amount 1 mgg) | Salivation ([3]; Amount 1 mgg) | Urination ([3]; Amount 1 mgg)
4: Dyspnoea ([3]; Amount 0.25 mgg) | Ptosis ([3]; Amount 0.25 mgg) | Sedation ([3]; Amount 0.25 mgg) | Vasodilation ([3]; Amount 0.25 mgg) | Dyspnoea ([3]; Amount 0.5 mgg) | Vasodilation ([3]; Amount 0.5 mgg)
6: Ptosis ([3]; Amount 1 mgg) | Sedation ([3]; Amount 1 mgg)
0.83 mg/kg: ED50 [2, 5]

CCOC(=O)NCCOc1ccc(CC(=O)NCCCc2ccc(C)c(C)c2)cc1OC [Example 10, N-{3-(3,4-dimethylphenyl)propyl}-4-{2-(N-ethyloxycarbonyl)aminoethoxy}-3-methoxyphenylacetamide]
> 10 mg/kg of a body weight: ED50 acetic acid [1, 4]

CCCCCCCC/C=C\CCCCCCCC(=O)NCc1ccc(OCCN)c(OC)c1 [NE-21610, N{4(2-aminoethoxy)-3-methoxybenzyl)-oleamide, reference compound]
38.3 mg/kg: ED50 [2, 5]
> 300 mg/kg: ED50 [1, 4]

COc1cc(CC(=O)NCCCc2ccc(C)c(C)c2)ccc1OCCNC(=O)c1ccccc1OC(C)=O [Example 11, N-{3-(3,4-dimethylphenyl)propyl}-4-[2-{N-(2-acetoxybenzoyl)}aminoethoxy]-3-methoxyphenylacetamide]
4.15 mg/kg: ED50 [1, 4]

CCCCC1C(=O)N(c2ccccc2)N(c2ccccc2)C1=O [Phenylbutazone]
79.8 mg/kg: ED50 [2, 5]
